Reference: the supplement of paper PMC10307832

Experiments:
Experiment in all cases: relative viability (nuclei count vs DMSO), 5 days (fraction); higher = more cells survive
Elesclomol + Palbociclib = compound: CN(NC(=O)CC(=O)NN(C)C(=S)c1ccccc1)C(=S)c1ccccc1 [Elesclomol] + CC(=O)c1c(C)c2cnc(Nc3ccc(N4CCNCC4)cn3)nc2n(C2CCCC2)c1=O [Palbociclib] (partner 0.5 µM)
In short: (§1)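 Relative viability is defined as nuclei in treated wells over nuclei in vehicle wells. Duplicate plates were run and medians reported. Lung cancer cell lines in 1536-well plates were dosed by pin tool one day after seeding, with one drug or with a fixed anchor-drug dose plus five library-drug doses (not always all listed) in √10 steps, and nuclei were counted after 5 days.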

Elesclomol + Lapatinib = compound: CN(NC(=O)CC(=O)NN(C)C(=S)c1ccccc1)C(=S)c1ccccc1 [Elesclomol] + CS(=O)(=O)CCNCc1ccc(-c2ccc3ncnc(Nc4ccc(OCc5cccc(F)c5)c(Cl)c4)c3c2)o1 [Lapatinib] (partner 2 µM)
In short: as §1

Elesclomol + Phenformin = compound: CN(NC(=O)CC(=O)NN(C)C(=S)c1ccccc1)C(=S)c1ccccc1 [Elesclomol] + N=C(N)NC(=N)NCCc1ccccc1 [Phenformin] (partner 250 µM)
In short: as §1

Elesclomol + Pemetrexed = compound: CN(NC(=O)CC(=O)NN(C)C(=S)c1ccccc1)C(=S)c1ccccc1 [Elesclomol] + Nc1nc2[nH]cc(CCc3ccc(C(=O)N[C@@H](CCC(=O)O)C(=O)O)cc3)c2c(=O)[nH]1 [Pemetrexed] (partner 0.2 µM)
In short: as §1

Elesclomol + Olaparib = compound: CN(NC(=O)CC(=O)NN(C)C(=S)c1ccccc1)C(=S)c1ccccc1 [Elesclomol] + O=C(c1cc(Cc2n[nH]c(=O)c3ccccc23)ccc1F)N1CCN(C(=O)C2CC2)CC1 [Olaparib] (partner 8 µM)
In short: as §1

Cell Line: NCI-H2023
- relative viability (Elesclomol + Palbociclib; first compound 0.003162 µM): 0.355
- relative viability (Elesclomol + Palbociclib; first compound 0.01 µM): 0.124
- relative viability (Elesclomol + Palbociclib; first compound 0.03162 µM): 0.0385
- relative viability (Elesclomol + Palbociclib; first compound 0.1 µM): 0.0417
- relative viability (Elesclomol + Lapatinib; first compound 0.003162 µM): 0.384
- relative viability (Elesclomol + Lapatinib; first compound 0.01 µM): 0.266
- relative viability (Elesclomol + Lapatinib; first compound 0.03162 µM): 0.0556
- relative viability (Elesclomol + Lapatinib; first compound 0.1 µM): 0.0486
- relative viability (Elesclomol + Phenformin; first compound 0.003162 µM): 0.349
- relative viability (Elesclomol + Phenformin; first compound 0.01 µM): 0.217
- relative viability (Elesclomol + Phenformin; first compound 0.03162 µM): 0.145
- relative viability (Elesclomol + Phenformin; first compound 0.1 µM): 0.0642
- relative viability (Elesclomol + Pemetrexed; first compound 0.003162 µM): 0.172
- relative viability (Elesclomol + Pemetrexed; first compound 0.01 µM): 0.128
- relative viability (Elesclomol + Pemetrexed; first compound 0.03162 µM): 0.0613
- relative viability (Elesclomol + Pemetrexed; first compound 0.1 µM): 0.0421
- relative viability (Elesclomol + Olaparib; first compound 0.003162 µM): 0.465
- relative viability (Elesclomol + Olaparib; first compound 0.01 µM): 0.272
- relative viability (Elesclomol + Olaparib; first compound 0.03162 µM): 0.143
- relative viability (Elesclomol + Olaparib; first compound 0.1 µM): 0.102

Cell Line: NCI-H2085
- relative viability (Elesclomol + Palbociclib; first compound 0.003162 µM): 0.459
- relative viability (Elesclomol + Palbociclib; first compound 0.01 µM): 0.423
- relative viability (Elesclomol + Palbociclib; first compound 0.03162 µM): 0.333
- relative viability (Elesclomol + Palbociclib; first compound 0.1 µM): 0.255
- relative viability (Elesclomol + Lapatinib; first compound 0.003162 µM): 0.761
- relative viability (Elesclomol + Lapatinib; first compound 0.01 µM): 0.521
- relative viability (Elesclomol + Lapatinib; first compound 0.03162 µM): 0.397
- relative viability (Elesclomol + Lapatinib; first compound 0.1 µM): 0.376
- relative viability (Elesclomol + Phenformin; first compound 0.003162 µM): 0.676
- relative viability (Elesclomol + Phenformin; first compound 0.01 µM): 0.588
- relative viability (Elesclomol + Phenformin; first compound 0.03162 µM): 0.512
- relative viability (Elesclomol + Phenformin; first compound 0.1 µM): 0.305
- relative viability (Elesclomol + Pemetrexed; first compound 0.003162 µM): 0.911
- relative viability (Elesclomol + Pemetrexed; first compound 0.01 µM): 0.902
- relative viability (Elesclomol + Pemetrexed; first compound 0.03162 µM): 0.64
- relative viability (Elesclomol + Pemetrexed; first compound 0.1 µM): 0.168
- relative viability (Elesclomol + Olaparib; first compound 0.003162 µM): 0.874
- relative viability (Elesclomol + Olaparib; first compound 0.01 µM): 0.669
- relative viability (Elesclomol + Olaparib; first compound 0.03162 µM): 0.497
- relative viability (Elesclomol + Olaparib; first compound 0.1 µM): 0.282

Cell Line: NCI-H2087
- relative viability (Elesclomol + Palbociclib; first compound 0.003162 µM): 0.222
- relative viability (Elesclomol + Palbociclib; first compound 0.01 µM): 0.188
- relative viability (Elesclomol + Palbociclib; first compound 0.03162 µM): 0.176
- relative viability (Elesclomol + Palbociclib; first compound 0.1 µM): 0.0806
- relative viability (Elesclomol + Lapatinib; first compound 0.003162 µM): 0.895
- relative viability (Elesclomol + Lapatinib; first compound 0.01 µM): 0.519
- relative viability (Elesclomol + Lapatinib; first compound 0.03162 µM): 0.58
- relative viability (Elesclomol + Lapatinib; first compound 0.1 µM): 0.569
- relative viability (Elesclomol + Phenformin; first compound 0.003162 µM): 0.376
- relative viability (Elesclomol + Phenformin; first compound 0.01 µM): 0.343
- relative viability (Elesclomol + Phenformin; first compound 0.03162 µM): 0.284
- relative viability (Elesclomol + Phenformin; first compound 0.1 µM): 0.181
- relative viability (Elesclomol + Pemetrexed; first compound 0.003162 µM): 0.588
- relative viability (Elesclomol + Pemetrexed; first compound 0.01 µM): 0.685
- relative viability (Elesclomol + Pemetrexed; first compound 0.03162 µM): 0.609
- relative viability (Elesclomol + Pemetrexed; first compound 0.1 µM): 0.108
- relative viability (Elesclomol + Olaparib; first compound 0.003162 µM): 0.55
- relative viability (Elesclomol + Olaparib; first compound 0.01 µM): 0.264
- relative viability (Elesclomol + Olaparib; first compound 0.03162 µM): 0.334
- relative viability (Elesclomol + Olaparib; first compound 0.1 µM): 0.082

Cell Line: NCI-H2126
- relative viability (Elesclomol + Palbociclib; first compound 0.003162 µM): 0.341
- relative viability (Elesclomol + Palbociclib; first compound 0.01 µM): 0.357
- relative viability (Elesclomol + Palbociclib; first compound 0.03162 µM): 0.352
- relative viability (Elesclomol + Palbociclib; first compound 0.1 µM): 0.309
- relative viability (Elesclomol + Lapatinib; first compound 0.003162 µM): 0.731
- relative viability (Elesclomol + Lapatinib; first compound 0.01 µM): 0.698
- relative viability (Elesclomol + Lapatinib; first compound 0.03162 µM): 0.791
- relative viability (Elesclomol + Lapatinib; first compound 0.1 µM): 0.766
- relative viability (Elesclomol + Phenformin; first compound 0.003162 µM): 0.562
- relative viability (Elesclomol + Phenformin; first compound 0.01 µM): 0.526
- relative viability (Elesclomol + Phenformin; first compound 0.03162 µM): 0.538
- relative viability (Elesclomol + Phenformin; first compound 0.1 µM): 0.46
- relative viability (Elesclomol + Pemetrexed; first compound 0.003162 µM): 0.766
- relative viability (Elesclomol + Pemetrexed; first compound 0.01 µM): 0.59
- relative viability (Elesclomol + Pemetrexed; first compound 0.03162 µM): 0.686
- relative viability (Elesclomol + Pemetrexed; first compound 0.1 µM): 0.542
- relative viability (Elesclomol + Olaparib; first compound 0.003162 µM): 0.913
- relative viability (Elesclomol + Olaparib; first compound 0.01 µM): 0.886
- relative viability (Elesclomol + Olaparib; first compound 0.03162 µM): 0.887
- relative viability (Elesclomol + Olaparib; first compound 0.1 µM): 0.777
